Reference: patent US12127557B2
Like-named read-outs stand apart in the source and are kept apart here.

What was measured:
Pythium ultimum = format: cell-based; conditions: no enzyme, 2 days
Fusarium graminearum = format: cell-based; conditions: no enzyme, 5 days

Substance: mancozeb
- Reduction in P. ultimum growth (−) enzyme (Pythium ultimum; mancozeb 0.5 mg/l): 2% f
- Reduction in P. ultimum growth (−) enzyme (Pythium ultimum; mancozeb 2 mg/l): 10% e
- Reduction in P. ultimum growth (−) enzyme (Pythium ultimum; mancozeb 5 mg/l): 16% e
- Reduction in P. ultimum growth (−) enzyme (Pythium ultimum; mancozeb 10 mg/l): 23% d
- Reduction in F. graminearum growth (−) enzyme (Fusarium graminearum; mancozeb 0.5 mg/l): 6% cd
- Reduction in F. graminearum growth (−) enzyme (Fusarium graminearum; mancozeb 2 mg/l): 1% d
- Reduction in F. graminearum growth (−) enzyme (Fusarium graminearum; mancozeb 5 mg/l): 17% cd
- Reduction in F. graminearum growth (−) enzyme (Fusarium graminearum; mancozeb 10 mg/l): 26% bcd
